Data taken from patent US20160137746A1, “METHODS FOR TREATING HIGH CARDIOVASCULAR RISK PATIENTS WITH HYPERCHOLESTEROLEMIA” (Sanofi Biotechnology, priority 2014, published 2016).
Values joined by “and” are separate entries in the source; they are usually repeats but may differ in a detail not shown here. Identical values can stand only once.

Tested on: high cardiovascular risk patients with hypercholesterolemia
Experiment: ODYSSEY LONG TERM: lipid efficacy of alirocumab 150 mg Q2W vs placebo
Assay type: in vivo, human
Conditions: for Percent change from baseline in calculated LDL-C at week 24 (%), LS means (SE) / Percent change from baseline in calculated LDL-C at week 24, LS mean difference (SE) vs placebo / Calculated LDL-C percent change from baseline, LS mean (SE): ITT population; for Percent change from baseline in calculated LDL-C at week 24 (%), LS means (SE) / Percent change from baseline in calculated LDL-C at week 24, LS mean difference (SE) vs placebo: 150 Q2W; for Calculated LDL-C percent change from baseline, LS mean (SE): MMRM, alirocumab 150 Q2W
Description: Patients were stratified according to heFH population, prior history of MI or ischemic stroke, statin treatment and geographic region. Patients at high cardiovascular risk were defined as 1) having heFH (who may or may not have CHD/CHD risk equivalents) or 2) no prior diagnosis of heFH but having hypercholesterolemia together with established CHD or CHD risk equivalents.
Primary analyses of efficacy endpoints were conducted using an ITT approach (based on the ITT population defined above), including all lipid data, regardless of whether the patient was continuing therapy or not. This corresponds to ITT estimands, defined for primary and key secondary endpoints. In addition, analyses were also conducted using an on-treatment approach (based on the mITT population defined above), including lipid data collected during the efficacy treatment period. This corresponds to on-treatment estimands of key secondary endpoints.
With regards to the primary efficacy analysis (ITT approach), the percent change in calculated LDL-C from baseline to Week 24 was analyzed using a mixed-effect model with repeated measures (MMRM) approach. All post-baseline data available from Week 4 to Week 52 analysis windows were used and missing data were accounted for by the MMRM. […] This model provided baseline adjusted least-squares means (LSmeans) estimates at Week 24 for both treatment groups with their corresponding SEs and 95% confidence intervals.
Continuous secondary variables anticipated to have a normal distribution (i.e., lipids other than TGs and Lp(a)) were analyzed using the same MMRM model as for the primary endpoint. […] Combined estimate for mean in both treatment groups, as well as the differences of these estimates, with their corresponding SEs, 95% Cls and p-value were provided (through SAS MIANALYZE procedure).
Binary secondary efficacy endpoints were analyzed using multiple imputation approach for handling of missing values followed by stratified logistic regression with treatment group as main effect and corresponding baseline value(s) as covariate, stratified by randomization factors (as per IVRS). Combined estimates of odds ratio versus placebo, 95% CI, and p-value were provided (through SAS MIANALYZE procedure).

[1] = On-treatment analysis, 150 Q2W (N = 1523)
[2] = On-treatment analysis, 150 Q2W (N = 1523), combined estimate for adjusted mean (SE)
[3] = Pattern Mixture Model sensitivity analysis, 150 Q2W (N = 1523)
[4] = Week 24, free PCSK9 levels at or above the median
[5] = Week 24, free PCSK9 levels below the median

Substance: Alirocumab: human anti-PCSK9 antibody; HCVR SEQ ID NO:1, LCVR SEQ ID NO:6; CDRs SEQ ID NOs 2/3/4/7/8/10
- Percent change from baseline in calculated LDL-C at week 24 (%), LS means (SE) (HeFH population (271 patients)): −56.3 (1.9) %
- Percent change from baseline in calculated LDL-C at week 24, LS mean difference (SE) vs placebo (HeFH population): −63.2 (2.9) %
- Calculated LDL-C percent change, LS mean difference vs placebo (ITT, Week 24): −61.9%
- Calculated LDL-C, LS mean percent change from baseline (ITT, Week 24): −61.0%
- Measured LDL-C, LS mean percent change from baseline (ITT, Week 24): −61.3%
- Very high CV risk or high CV risk patients who reached calculated LDL-C <70 mg/dL or <100 mg/dL, respectively (ITT, Week 24): 80.7%
- Proportion of patients reaching calculated LDL-C <70 mg/dL (ITT, Week 24, listed as alirocumab): 79.3% and 79%
- Percent change from baseline in calculated LDL-C at week 24 (%), LS means (SE) (Non-HeFH population (1259 patients)): −62.1 (0.8) %
- Percent change from baseline in calculated LDL-C at week 24, LS mean difference (SE) vs placebo (Non-HeFH population): −61.5 (1.4) %
- Apo A1, LS mean (SE) change from baseline to Week 24 (%) [1]: 4.2 (0.4) %
- Apo A1, LS mean difference (SE) vs placebo, percent change from baseline at Week 24 [1]: 2.9 (0.7) %
- Apo B, LS mean (SE) change from baseline to Week 24 (%) [1]: −54.3 (0.7) %
- Apo B, LS mean difference (SE) vs placebo, percent change from baseline at Week 24 [1]: −55.5 (1.2) %
- Calculated LDL-C, LS mean (SE) change from baseline to Week 24 (%) [1]: −62.8 (0.7) %
- Calculated LDL-C, LS mean difference (SE) vs placebo, percent change from baseline at Week 24 [1]: −63.5 (1.2) %
- HDL-C, LS mean (SE) change from baseline to Week 24 (%) [1]: 4.2 (0.4) %
- HDL-C, LS mean difference (SE) vs placebo, percent change from baseline at Week 24 [1]: 4.9 (0.7) %
- Non-HDL-C, LS mean (SE) change from baseline to Week 24 (%) [1]: −53.1 (0.6) %
- Non-HDL-C, LS mean difference (SE) vs placebo, percent change from baseline at Week 24 [1]: −53.7 (1.0) %
- Total cholesterol, LS mean (SE) change from baseline to Week 24 (%) [1]: −38.8 (0.5) %
- Total cholesterol, LS mean difference (SE) vs placebo, percent change from baseline at Week 24 [1]: −38.4 (0.8) %
- Lipoprotein (a), LS mean difference (SE) vs placebo, percent change from baseline at Week 24 [2]: −26.3 (1.3) %
- Lipoprotein (a), change from baseline to Week 24 (%) [2]: −30.2 (0.7) %
- Triglycerides, LS mean difference (SE) vs placebo, percent change from baseline at Week 24 [2]: −17.2 (1.4) %
- Triglycerides, change from baseline to Week 24 (%) [2]: −15.8 (0.8) %
- Calculated LDL-C percent change, LS mean difference vs placebo (On-treatment, Week 24): −63.5%
- Proportion of patients reaching calculated LDL-C <70 mg/dL (On-treatment, Week 24): 81.2%
- Very high CV risk or high CV risk patients who reached calculated LDL-C <70 mg/dL or <100 mg/dL, respectively (On-treatment, Week 24): 82.8%
- Calculated LDL-C, LS mean (SE) change from baseline to Week 24 (%) [3]: −57.8 (0.8) %
- Calculated LDL-C, LS mean difference (SE) vs placebo, percent change from baseline at Week 24 [3]: −58.5 (1.3) %
- Calculated LDL-C percent change from baseline, LS mean (SE) (Week 4): −64.8%
- Calculated LDL-C percent change from baseline, LS mean (SE) (Week 8): −65.8%
- Apo-B - Percent change from baseline to Week 12, LS mean difference vs. placebo (Week 12, ITT): placebo of −56%
- Apolipoprotein A1 - Percent change from baseline to Week 12, LS mean difference vs. placebo (Week 12, ITT): placebo of 4%
- Calculated LDL-C - Percent change from baseline to Week 12, LS mean difference vs. placebo (Week 12, ITT): placebo of −64.8%
- Fasting TGs - Percent change from baseline to Week 12, combined estimate for adjusted mean difference vs. placebo (Week 12, ITT): vs. placebo of −17.9%
- HDL-C - Percent change from baseline to Week 12, LS mean difference vs. placebo (Week 12, ITT): placebo of 5.6%
- Lp(a) - Percent change from baseline to Week 12, combined estimate for adjusted mean difference vs. placebo (Week 12, ITT): vs. placebo of −25.1%
- Non-HDL-C - Percent change from baseline to Week 12, LS mean difference vs. placebo (Week 12, ITT): placebo of −54.6%
- Total-C - Percent change from baseline to Week 12, LS mean difference vs. placebo (Week 12, ITT): placebo of −39%
- Calculated LDL-C percent change from baseline, LS mean (SE) (Week 12): −63.3%
- Calculated LDL-C - Percent change from baseline to Week 12, LS mean difference vs. placebo (Week 12, On-treatment): placebo of −65.5%
- Calculated LDL-C percent change from baseline, LS mean (SE) (Week 16): −64.5%
- Calculated LDL-C percent change, LS mean difference vs placebo [4]: −66.0%
- Calculated LDL-C, LS mean percent change from baseline [4]: −62.7%
- Calculated LDL-C percent change, LS mean difference vs placebo [5]: −58.0%
- Calculated LDL-C, LS mean percent change from baseline [5]: −59.4%
- Calculated LDL-C percent change, LS mean difference vs placebo (Week 24, men): −64.7%
